Earlier results as cited in publication PMC7395068, “The evolution of strategies to minimise the risk of human drug-induced liver injury (DILI) in drug discovery and development” (Archives of Toxicology, 2020).
Read-outs that look alike come from different tables or passages of the source.

How the values were obtained:
[1] = system: HepG2 cells, primary human hepatocytes; details: cited from earlier work
human hepatocytes = details: In vitro Assay; ref Xu 2008; cited from earlier work
[2] = cited from earlier work
[3] = cited from earlier work; remark: listed apart in the source
PHH spheroids = details: In vitro Assay; ref Vorrink 2018; cited from earlier work
HepG2 cells [4] = details: In vitro Assay; ref Persson 2013; cited from earlier work
HepG2 cells [5] = details: cited from earlier work
[6] = system: isolated mouse liver mitochondria; details: In vitro Assay; ref Porceddu 2012; cited from earlier work
[7] = system: THLE or HepG2 cells, isolated mitochondria, BSEP; details: cited from earlier work
[8] = system: THLE-Null and THLE-3A4 cells; details: In vitro Assay; ref Gustafsson 2014; cited from earlier work
rBsep = details: In vitro Assay; ref Dawson 2012; cited from earlier work
[9] = system: primary human hepatocytes, NIH3T3 fibroblasts, BSEP, CYP3A4; details: cited from earlier work
[10] = In vitro Assay, ref Garside 2014
[11] = In vitro Assay, ref O'Brien 2006
[12] = In vitro Assay, ref Schadt 2015
[13] = assignment in Garside 2014, ref Garside 2014

## c1ccc(CN(CC2=NCCN2)c2ccccc2)cc1 [antazoline]
[1]; [10]
  Cluster 1-6 +VE Assay: -VE

## [N-]=[N+]=CC(=O)OC[C@H](N)C(=O)O [azaserine]
[1]; [10]
  Cluster 1-6 +VE Assay: +VE
Human hepatocytes
  Structural based (HCI): -VE

## CC[C@H]1OC(=O)[C@H](C)[C@@H](O[C@H]2C[C@@](C)(OC)[C@@H](O)[C@H](C)O2)[C@H](C)[C@@H](O[C@@H]2O[C@H](C)C[C@H](N(C)C)[C@H]2O)[C@](C)(O)C[C@@H](C)CN(C)[C@H](C)[C@@H](O)[C@]1(C)O [azithromycin]
[1]; [10]
  Cluster 1-6 +VE Assay: +VE
[2]; […]
  In vivo DILI: +VE
[2]; ref Garside 2014
  In vivo DILI: +VE
[2]; ref Xu 2008
  In vivo DILI: -VE
[3]; ref Chen 2016
  DILI +VE (5-8), DILI -VE (-4): +VE
  DILI severity category: vLess-DILI-Concern
Human hepatocytes
  Structural based (HCI): -VE

## CN(C)C(=O)Oc1cc(OC(=O)N(C)C)cc(C(O)CNC(C)(C)C)c1 (centres unmarked) [bambuterol]
PHH spheroids
  hLiMTs ATP <20 x Cmax: -VE
[2]; ref O'Brien 2006
  In vivo DILI: -VE
[2]; ref Persson 2013
  In vivo DILI: -VE
[2]; ref Vorrink 2018
  In vivo DILI: -VE
[2]; ref Xu 2008
  In vivo DILI: -VE
HepG2 cells [4]
  Cluser analysis: -VE
  Structural based (HCI): -VE
Human hepatocytes
  Structural based (HCI): -VE
HepG2 cells [5]; [11]
  Structural based (HCI): +VE

## OC(CCN1CCCCC1)(c1ccccc1)C1CC2C=CC1C2 (centres unmarked) [biperiden]
[1]; [10]
  Cluster 1-6 +VE Assay: -VE

## CCCCN(CCCC)CCCOC(=O)c1ccc(N)cc1 [butacaine]
[1]; [10]
  Cluster 1-6 +VE Assay: +VE
[2]; ref Garside 2014
  In vivo DILI: -VE

## Cn1c(=O)c2c(ncn2C)n(C)c1=O [caffeine]
[1]
  Cluster 1-6 +VE Assay: -VE
[6]
  in vitro data EC2<=1x Cmax: +VE

## CO[C@@]1(NC(=O)C2SC(=C(C(N)=O)C(=O)O)S2)C(=O)N2C(C(=O)O)=C(CSc3nnnn3C)CS[C@@H]21 (some centres unmarked) [cefotetan]
[1]; [10]
  Cluster 1-6 +VE Assay: -VE
[2]; ref Garside 2014
  In vivo DILI: -VE
[3]; ref Chen 2016
  DILI +VE (5-8), DILI -VE (-4): -VE
  DILI severity category: Ambiguous DILI-concern

## COc1ccc(C(Cl)=C(c2ccc(OC)cc2)c2ccc(OC)cc2)cc1 [chlorotrianisene]
[1]; [10]
  Cluster 1-6 +VE Assay: -VE
[2]; ref Garside 2014
  In vivo DILI: -VE

## O=C(O)c1cc(-c2ccccc2)nc2ccccc12 [cinchophen]
[7]
  Partition Hybrid HRM Score: +VE
[8]
  THLE-Null: -VE
[2]; in vivo
  In vivo DILI: +VE
[3]; in vivo
  DILI +VE (5-8), DILI -VE (-4): +VE
  DILI severity category: vMost-DILI-Concern
rBsep
  Inhibition of rBsep cutoff<1& cmax u>.2: -VE
  Inhibition of rBsep cutoff<3: +VE

## CC(C)(Oc1ccc(C2CC2(Cl)Cl)cc1)C(=O)O (centres unmarked) [ciprofibrate]
[8]
  THLE-Null: -VE
  THLE-Null/3A4: -VE
[2]; ref Dawson 2012
  In vivo DILI: +VE
[2]; ref Gustafsson 2014
  In vivo DILI: +VE
[2]; ref O'Brien 2006
  In vivo DILI: +VE
[2]; ref Schadt 2015
  In vivo DILI: -VE
[2]; ref Xu 2008
  In vivo DILI: +VE
[9]; [12]
  Cellular toxicity (3T3 cells): -VE
  Combined Assay: -VE
  GSH adduct HML: -VE
  Hepatocyte cellular toxicity: -VE
  MitoTox 3T3: -VE
  TDI CYP3A4: -VE
  hBSEP inhibition: -VE
Human hepatocytes
  Structural based (HCI): +VE
rBsep
  Inhibition of rBsep cutoff<1& cmax u>.2: -VE
  Inhibition of rBsep cutoff<3: +VE
HepG2 cells [5]; [11]
  Structural based (HCI): +VE

## O=c1ccc2ccccc2o1 [coumarin]
PHH spheroids
  hLiMTs ATP <20 x Cmax: +VE (IC20 < 20 × Cmax.tot cut-off)
[2]; […]
  In vivo DILI: +VE
[2]; ref Porceddu 2012
  In vivo DILI: +VE
[2]; ref Vorrink 2018
  In vivo DILI: +VE
[6]
  in vitro data EC2<=1x Cmax: +VE
  in vitro data EC20<=2uM: +VE

## CCCCC[C@H](O)/C=C/[C@H]1[C@H](O)CC(=O)[C@@H]1C/C=C\CCCC(=O)O [dinoprostone]
[1]; [10]
  Cluster 1-6 +VE Assay: -VE
[2]; ref Garside 2014
  In vivo DILI: -VE

## Cn1c(=O)c2c(ncn2CC(O)CO)n(C)c1=O (centres unmarked) [dyphylline]
[1]; [10]
  Cluster 1-6 +VE Assay: -VE
[2]; ref Garside 2014
  In vivo DILI: -VE
[3]; ref Chen 2016
  DILI +VE (5-8), DILI -VE (-4): -VE
  DILI severity category: vNo-DILI-Concern

## C[C@H](N[C@@H](CCc1ccccc1)C(=O)O)C(=O)N1CCC[C@H]1C(=O)O [enalaprilat]
[1]
  Cluster 1-6 +VE Assay: -VE
[2]; in vivo
  In vivo DILI: +VE
[3]; ref Chen 2016
  DILI +VE (5-8), DILI -VE (-4): -VE
  DILI severity category: Ambiguous DILI-concern

## CC(C)OC(=O)C(C)(C)Oc1ccc(C(=O)c2ccc(Cl)cc2)cc1 [fenofibrate]
[7]; In vitro Assay, ref Aleo 2019
  Partition Hybrid HRM Score: +VE
  Ro2 Hybrid HRM Score: +VE
PHH spheroids
  hLiMTs ATP <20 x Cmax: +VE (IC20 < 20 × Cmax.tot cut-off)
HepG2 cells [4]
  Cluser analysis: -VE
Human hepatocytes
  Structural based (HCI): -VE

## O=c1[nH]cc(F)c(=O)[nH]1 [fluorouracil]
[1]; [10]
  Cluster 1-6 +VE Assay: +VE
[2]; ref Garside 2014
  In vivo DILI: +VE
[3]; ref Chen 2016
  DILI +VE (5-8), DILI -VE (-4): +VE
  DILI severity category: vLess-DILI-Concern

## NS(=O)(=O)c1cc(C(=O)O)c(NCc2ccco2)cc1Cl [furosemide, reference compound]
[8]
  THLE-Null: -VE
HepG2 cells [4]
  Cluser analysis: -VE
  Structural based (HCI): -VE
HepG2 cells [5]; [11]
  Structural based (HCI): -VE

## CCN(CC)CCNc1ccc(CO)c2sc3ccccc3c(=O)c12 [hycanthone]
[1]; [10]
  Cluster 1-6 +VE Assay: +VE
[2]; […]
  In vivo DILI: +VE
[2]; ref Garside 2014
  In vivo DILI: +VE
[2]; ref Xu 2008
  In vivo DILI: +VE
Human hepatocytes
  Structural based (HCI): +VE

## CC[C@@H](C(N)=O)N1CCCC1=O [levetiracetam]
[1]; [10]
  Cluster 1-6 +VE Assay: +VE
[2]; ref Garside 2014
  In vivo DILI: +VE
[3]; ref Chen 2016
  DILI +VE (5-8), DILI -VE (-4): +VE
  DILI severity category: vLess-DILI-Concern

## CC(Oc1c(Cl)cccc1Cl)C1=NCCN1 (centres unmarked) [lofexidine]
[1]; ref Garside 2014
  Cluster 1-6 +VE Assay, In vitro Assay: -VE
[2]; [13]
  In vivo DILI: -VE

## CCCCc1nc(Cl)c(CO)n1Cc1ccc(-c2ccccc2-c2nn[nH]n2)cc1 [losartan]
[7]; In vitro Assay, ref Aleo 2019
  Partition Hybrid HRM Score: +VE
  Ro2 Hybrid HRM Score: +VE
[1]; [10]
  Cluster 1-6 +VE Assay: +VE
[9]; [12]
  Cellular toxicity (3T3 cells): -VE
  Combined Assay: +VE
  GSH adduct HML: +VE
  Hepatocyte cellular toxicity: +VE
  MitoTox 3T3: -VE
  TDI CYP3A4: -VE
  hBSEP inhibition: +VE

## Cc1ccc(Nc2c(F)cccc2Cl)c(CC(=O)O)c1 [lumiracoxib]
[8]
  THLE-Null: +VE
[6]
  in vitro data EC2<=1x Cmax: +VE
[9]; [12]
  Cellular toxicity (3T3 cells): -VE
  Combined Assay: +VE
  GSH adduct HML: +VE
  Hepatocyte cellular toxicity: -VE
  MitoTox 3T3: -VE
  TDI CYP3A4: -VE
  hBSEP inhibition: -VE

## CC(=O)[C@H]1CC[C@H]2[C@@H]3C[C@H](C)C4=CC(=O)CC[C@]4(C)[C@H]3[C@@H](O)C[C@]12C [medrysone]
[1]; ref Garside 2014
  Cluster 1-6 +VE Assay, In vitro Assay: +VE
[2]; [13]
  In vivo DILI: -VE

## Cc1cc2c(s1)Nc1ccccc1N=C2N1CCN(C)CC1 [olanzapine]
[8]
  THLE-Null: -VE
[2]; […]
  In vivo DILI: -VE
[2]; ref Gustafsson 2014
  In vivo DILI: +VE
[2]; ref Schadt 2015
  In vivo DILI: -VE
[2]; ref Williams 2019
  In vivo DILI: +VE

## COc1cc(NC(C)CCCN)c2ncccc2c1 (centres unmarked) [primaquine]
[7]; In vitro Assay, ref Aleo 2019
  Partition Hybrid HRM Score: -VE
  Ro2 Hybrid HRM Score: -VE
PHH spheroids
  hLiMTs ATP <20 x Cmax: -VE
[2]; ref Aleo 2019
  In vivo DILI: -VE
[2]; ref O'Brien 2006
  In vivo DILI: -VE
[2]; ref Schadt 2015
  In vivo DILI: -VE
[2]; ref Vorrink 2018
  In vivo DILI: -VE
[2]; ref Xu 2008
  In vivo DILI: -VE
[9]
  hBSEP inhibition: -VE
[3]; ref Chen 2016
  DILI +VE (5-8), DILI -VE (-4): -VE
  DILI severity category: vNo-DILI-Concern
Human hepatocytes
  Structural based (HCI): -VE
HepG2 cells [5]; [11]
  Structural based (HCI): +VE

## C=C[C@H]1C[N@@]2CC[C@H]1C[C@@H]2[C@@H](O)c1ccnc2ccc(OC)cc12 [quinidine]
PHH spheroids
  hLiMTs ATP <20 x Cmax: +VE (IC20 < 20 × Cmax.tot cut-off)
[9]
  Cellular toxicity (3T3 cells): +VE
  GSH adduct HML: -VE
  TDI CYP3A4: -VE
  hBSEP inhibition: -VE
[3]; in vivo
  DILI +VE (5-8), DILI -VE (-4): +VE
  DILI severity category: vLess-DILI-Concern
HepG2 cells [5]
  Structural based (HCI): +VE

## Cc1nc2n(c(=O)c1CCN1CCC(c3noc4cc(F)ccc34)CC1)CCCC2 [risperidone]
PHH spheroids
  hLiMTs ATP <20 x Cmax: -VE
[2]; ref Persson 2013
  In vivo DILI: +VE
[2]; ref Vorrink 2018
  In vivo DILI: +VE
[2]; ref Xu 2008
  In vivo DILI: +VE
HepG2 cells [4]
  Cluser analysis: +VE
  Structural based (HCI): -VE
Human hepatocytes
  Structural based (HCI): -VE

## O=C(O)c1ccccc1O [salicylic acid]
[8]
  THLE-Null: -VE
[6]
  in vitro data EC2<=1x Cmax: +VE
rBsep
  Inhibition of rBsep cutoff<1& cmax u>.2: -VE
  Inhibition of rBsep cutoff<3: -VE

## Cc1nnc(NS(=O)(=O)c2ccc(N)cc2)s1 [sulfamethizole]
[1]; [10]
  Cluster 1-6 +VE Assay: -VE

## CCN1CCCC1CNC(=O)c1cc(S(N)(=O)=O)ccc1OC (centres unmarked) [sulpiride]
[8]
  THLE-Null: -VE
[2]; in vivo
  In vivo DILI: +VE
rBsep
  Inhibition of rBsep cutoff<1& cmax u>.2: -VE
  Inhibition of rBsep cutoff<3: -VE

## Cn1nnc2c(C(N)=O)ncn2c1=O [temozolomide]
PHH spheroids
  hLiMTs ATP <20 x Cmax: -VE
[2]; ref O'Brien 2006
  In vivo DILI: -VE
[2]; ref Vorrink 2018
  In vivo DILI: -VE
[2]; ref Xu 2008
  In vivo DILI: -VE
[3]; ref Chen 2016
  DILI +VE (5-8), DILI -VE (-4): +VE
  DILI severity category: vLess-DILI-Concern
Human hepatocytes
  Structural based (HCI): -VE
HepG2 cells [5]; [11]
  Structural based (HCI): +VE (lowest HCI endpoint IC50 (or in the absence of dose–response < 100 µM) < 30 × total human plasma exposure levels (Cmax.tot))

## CC(C)(C)NCC(O)c1cc(O)cc(O)c1 (centres unmarked) [terbutaline]
[1]; [10]
  Cluster 1-6 +VE Assay: +VE
[2]; ref Garside 2014
  In vivo DILI: +VE
[3]; ref Chen 2016
  DILI +VE (5-8), DILI -VE (-4): +VE
  DILI severity category: vLess-DILI-Concern
